Measured values from patent US20170150719A1, “FUNGICIDAL PYRAZOLES AND THEIR MIXTURES” (E I DU PONT DE NEMOURS AND COMPANY, priority 2010, published 2017).
Marks after values point to notes of the source that are not given here.

Experiments:
Septoria tritici = test: Test F: wheat leaf blotch, preventive spray on wheat seedlings, visual disease rating; type: in vivo; set-up: Test F rating (disease control), value marked *: concentration or dose not given beside the values; conditions: for Test F rating (disease control): 100 = 100% disease control, 0 = no disease control relative to the controls; for Test F rating (disease control), value marked *: rating marked with asterisk (*), other test condition, not explained in the text shown
Excerpt: (§1) A hyphen (-) indicates no test results.

Alternaria solani = test: Test B: tomato early blight, preventive spray on tomato seedlings, visual disease rating; conditions: tomato early blight; 100 = 100% disease control, 0 = no disease control relative to the controls
[1] = system: Puccinia recondita f. sp. tritici; test: Test H: wheat leaf rust, preventive spray on wheat seedlings, visual disease rating; conditions: wheat leaf rust, sprayed the day before inoculation; 100 = 100% disease control, 0 = no disease control
Protocol: (§2) General protocol for preparing test suspensions for Tests A-I: the test compounds were first dissolved in acetone in an amount equal to 3% of the final volume and then suspended at the desired concentration (in ppm) in acetone and purified water (50/50 mix by volume) containing 250 ppm of the surfactant Trem® 014 (polyhydric alcohol esters). The resulting test suspensions were then used in Tests A-I. Each test was conducted in triplicate, and the results were averaged. Spraying a 200 ppm test suspension to the point of run-off on the test plants was the equivalent of a rate of about 800 g/ha. Unless otherwise indicated, the rating values indicate a 200 ppm test suspension was used. (An asterisk “*” next to the rating value indicates a 40 ppm test suspension was used.)
The test suspension was sprayed to the point of run-off on wheat seedlings. The following day the seedlings were inoculated with a spore suspension of Puccinia recondita f. sp. tritici (the causal agent of wheat leaf rust) and incubated in a saturated atmosphere at 20° C. for 24 h, and then moved to a growth chamber at 20° C. for 6 days, after which time visual disease ratings were made.

[2] = system: Puccinia recondita f. sp. tritici; test: Test G: wheat leaf rust, spray after inoculation (curative) on wheat seedlings, visual disease rating; type: in vivo; conditions: sprayed after inoculation, 100 = 100% disease control, 0 = no disease control
Excerpt: as §1

Botrytis cinerea = test: Test A: tomato Botrytis, preventive spray on tomato seedlings, visual disease rating; conditions: tomato Botrytis; 100 = 100% disease control, 0 = no disease control relative to the controls
Protocol: as §2
The test suspension was sprayed to the point of run-off on tomato seedlings. The following day the seedlings were inoculated with a spore suspension of Botrytis cinerea (the causal agent of tomato Botrytis) and incubated in saturated atmosphere at 20° C. for 48 h, and then moved to a growth chamber at 24° C. for 3 additional days, after which time visual disease ratings were made.

Septoria nodorum = test: Test E: Septoria glume blotch, preventive spray on wheat seedlings, visual disease rating; conditions: Septoria glume blotch; 100 = 100% disease control, 0 = no disease control relative to the controls
[3] = system: Blumeria graminis f. sp. tritici; test: Test I: wheat powdery mildew, preventive spray on wheat seedlings, visual disease rating; conditions: wheat powdery mildew; for Test I rating (disease control): 100 = 100% disease control, 0 = no disease control relative to the controls
Protocol: as §2
The test suspension was sprayed to the point of run-off on wheat seedlings. The following day the seedlings were inoculated with a spore dust of Blumeria graminis f. sp. tritici (also known as Erysiphe graminis f. sp. tritici, the causal agent of wheat powdery mildew) and incubated in a growth chamber at 20° C. for 8 days, after which time visual disease ratings were made.

Cc1nn(C)c(Nc2ccc(C#N)cc2F)c1-c1ccc(F)cc1F [compound 68]
Test F rating (disease control) (Septoria tritici): 100%
Test B rating (disease control) (Alternaria solani): 51%
Test H rating (disease control) [1]: 80%
Test G rating (disease control) [2]: 0%
Test A rating (disease control) (Botrytis cinerea): 99%
Test E rating (disease control) (Septoria nodorum): 0%
Test I rating (disease control) [3]: 100%

Cc1nn(C)c(Nc2c(F)cccc2F)c1-c1c(F)cccc1F [compound 69]
Test F rating (disease control) (Septoria tritici): 100%
Test B rating (disease control) (Alternaria solani): 99%
Test H rating (disease control) [1]: 99%
Test G rating (disease control) [2]: 0%
Test A rating (disease control) (Botrytis cinerea): 100%
Test E rating (disease control) (Septoria nodorum): 60%
Test I rating (disease control) [3]: 100%

Cc1nn(C)c(Nc2c(F)cc(F)cc2F)c1-c1ccccc1Br [compound 70]
Test F rating (disease control) (Septoria tritici): 100%
Test B rating (disease control) (Alternaria solani): 26%
Test H rating (disease control) [1]: 99%
Test G rating (disease control) [2]: 0%
Test A rating (disease control) (Botrytis cinerea): 99%
Test E rating (disease control) (Septoria nodorum): 73%
Test I rating (disease control) [3]: 100%

Cc1nn(C)c(Nc2c(F)cccc2F)c1-c1ccc(F)cc1F [compound 71]
Test F rating (disease control) (Septoria tritici): 100%
Test B rating (disease control) (Alternaria solani): 99%
Test H rating (disease control) [1]: 99%
Test G rating (disease control) [2]: 0%
Test A rating (disease control) (Botrytis cinerea): 99%
Test E rating (disease control) (Septoria nodorum): 96%
Test I rating (disease control) [3]: 100%

COc1cc(F)c(Nc2c(-c3c(F)cccc3F)c(C)nn2C)c(F)c1 [compound 72]
Test F rating (disease control) (Septoria tritici): 100%
Test B rating (disease control) (Alternaria solani): 99%
Test H rating (disease control) [1]: 97%
Test G rating (disease control) [2]: 0%
Test A rating (disease control) (Botrytis cinerea): 100%
Test E rating (disease control) (Septoria nodorum): 0%
Test I rating (disease control) [3]: 98%

Cc1nn(C)c(Oc2c(F)cc(C#N)cc2F)c1-c1ccccc1Cl [compound 75]
Test F rating (disease control) (Septoria tritici): 100%
Test B rating (disease control) (Alternaria solani): 99%
Test H rating (disease control) [1]: 99%
Test G rating (disease control) [2]: 0%
Test A rating (disease control) (Botrytis cinerea): 100%
Test E rating (disease control) (Septoria nodorum): 99%
Test I rating (disease control) [3]: 98%

Cc1nn(C)c(Oc2c(F)cc(C#N)cc2F)c1-c1ccccc1Br [compound 76]
Test F rating (disease control) (Septoria tritici): 99%
Test B rating (disease control) (Alternaria solani): 97%
Test H rating (disease control) [1]: 99%
Test G rating (disease control) [2]: 0%
Test A rating (disease control) (Botrytis cinerea): 100%
Test E rating (disease control) (Septoria nodorum): 99%
Test I rating (disease control) [3]: 99%

COc1ccc(-c2c(C)nn(C)c2Nc2ccc(Cl)cc2Cl)c(Cl)c1 [compound 77]
Test F rating (disease control), value marked * (Septoria tritici): 99* %
Test B rating (disease control) (Alternaria solani): 98%
Test H rating (disease control) [1]: 99%
Test G rating (disease control) [2]: 0%
Test A rating (disease control) (Botrytis cinerea): 99%
Test E rating (disease control) (Septoria nodorum): 0%
Test I rating (disease control) [3]: 100%

Cc1nn(C)c(Nc2ccc(Cl)cc2Cl)c1-c1c(F)cccc1Cl [compound 78]
Test F rating (disease control), value marked * (Septoria tritici): 99* %
Test B rating (disease control) (Alternaria solani): 65%
Test H rating (disease control) [1]: 99%
Test G rating (disease control) [2]: 9%
Test A rating (disease control) (Botrytis cinerea): 99%
Test E rating (disease control) (Septoria nodorum): 0%
Test I rating (disease control) [3]: 100%

Cc1nn(C)c(Oc2ccc(C#N)cc2Cl)c1-c1ccc(F)cc1Br [compound 80]
Test F rating (disease control), value marked * (Septoria tritici): 100* %
Test B rating (disease control) (Alternaria solani): 0%
Test H rating (disease control) [1]: 99%
Test G rating (disease control) [2]: 9%
Test A rating (disease control) (Botrytis cinerea): 98%
Test E rating (disease control) (Septoria nodorum): 60%
Test I rating (disease control) [3]: 99%

Cc1nn(C)c(Nc2c(F)cc(C#N)cc2F)c1-c1ccc(F)cc1F [compound 83]
Test F rating (disease control) (Septoria tritici): 100%
Test B rating (disease control) (Alternaria solani): 99%
Test H rating (disease control) [1]: 100%
Test G rating (disease control) [2]: 0%
Test A rating (disease control) (Botrytis cinerea): 100%
Test E rating (disease control) (Septoria nodorum): 87%
Test I rating (disease control) [3]: 100%

COc1cc(Cl)c(Nc2c(-c3ccc(F)cc3Cl)c(C)nn2C)c(Cl)c1 [compound 85]
Test F rating (disease control) (Septoria tritici): 100%
Test B rating (disease control) (Alternaria solani): 0%
Test H rating (disease control) [1]: 99%
Test G rating (disease control) [2]: 0%
Test A rating (disease control) (Botrytis cinerea): 99%
Test E rating (disease control) (Septoria nodorum): 0%
Test I rating (disease control), value marked * ([3]; rating marked with asterisk (*), not explained in the text shown): 99* %

Cc1nn(C)c(Nc2c(F)cc(F)cc2Cl)c1-c1c(F)cccc1Cl [compound 87]
Test F rating (disease control) (Septoria tritici): 100%
Test B rating (disease control) (Alternaria solani): 93%
Test H rating (disease control) [1]: 100%
Test G rating (disease control) [2]: 0%
Test A rating (disease control) (Botrytis cinerea): 100%
Test E rating (disease control) (Septoria nodorum): 87%
Test I rating (disease control) [3]: 100%

Cc1nn(C)c(Nc2ccc(Cl)cc2Cl)c1-c1ccc(F)cc1Cl [compound 88]
Test F rating (disease control), value marked * (Septoria tritici): 100* %
Test B rating (disease control) (Alternaria solani): 95%
Test H rating (disease control) [1]: 100%
Test G rating (disease control) [2]: 41%
Test A rating (disease control) (Botrytis cinerea): 100%
Test E rating (disease control) (Septoria nodorum): 51%
Test I rating (disease control) [3]: 100%

Cc1nn(C)c(Nc2c(F)cc(F)cc2F)c1-c1c(F)cccc1F [compound 89]
Test F rating (disease control) (Septoria tritici): 100%
Test B rating (disease control) (Alternaria solani): 99%
Test H rating (disease control) [1]: 99%
Test G rating (disease control) [2]: 9%
Test A rating (disease control) (Botrytis cinerea): 100%
Test E rating (disease control) (Septoria nodorum): 82%
Test I rating (disease control) [3]: 100%

Cc1nn(C)c(Nc2c(F)cc(C#N)cc2F)c1-c1c(F)cccc1F [compound 90]
Test F rating (disease control) (Septoria tritici): 100%
Test B rating (disease control) (Alternaria solani): 87%
Test H rating (disease control) [1]: 98%
Test G rating (disease control) [2]: 0%
Test A rating (disease control) (Botrytis cinerea): 99%
Test E rating (disease control) (Septoria nodorum): 87%
Test I rating (disease control) [3]: 99%

Cc1nn(C)c(Oc2c(F)cc(C#N)cc2F)c1-c1ccccc1F [compound 91]
Test F rating (disease control) (Septoria tritici): 100%
Test B rating (disease control) (Alternaria solani): 99%
Test H rating (disease control) [1]: 99%
Test G rating (disease control) [2]: 0%
Test A rating (disease control) (Botrytis cinerea): 99%
Test E rating (disease control) (Septoria nodorum): 94%
Test I rating (disease control) [3]: 99%

COc1ccc(-c2c(C)nn(C)c2Oc2ccc(C#N)cc2F)c(Cl)c1 [compound 92]
Test F rating (disease control) (Septoria tritici): 100%
Test B rating (disease control) (Alternaria solani): 99%
Test H rating (disease control) [1]: 99%
Test G rating (disease control) [2]: 0%
Test A rating (disease control) (Botrytis cinerea): 100%
Test E rating (disease control) (Septoria nodorum): 99%
Test I rating (disease control) [3]: 96%

COc1ccc(-c2c(C)nn(C)c2Oc2ccc(C#N)cc2Cl)c(Cl)c1 [compound 93]
Test F rating (disease control) (Septoria tritici): 100%
Test B rating (disease control) (Alternaria solani): 0%
Test H rating (disease control) [1]: 99%
Test G rating (disease control) [2]: 0%
Test A rating (disease control) (Botrytis cinerea): 100%
Test E rating (disease control) (Septoria nodorum): 60%
Test I rating (disease control) [3]: 91%

Cc1nn(C)c(Nc2ccc(F)cc2Br)c1-c1ccc(F)cc1Br [compound 95]
Test F rating (disease control) (Septoria tritici): 100%
Test B rating (disease control) (Alternaria solani): 97%
Test H rating (disease control) [1]: 100%
Test G rating (disease control) [2]: 91%
Test A rating (disease control) (Botrytis cinerea): 100%
Test E rating (disease control) (Septoria nodorum): 51%
Test I rating (disease control) [3]: 100%
